From publication PMC3265452 (PLoS Neglected Tropical Diseases, 2012)
Where a name gives a salt, the structure may show the parent alone.

Molecular target: AaDOP2 (Aedes aegypti, UniProt H6D5H2)
Test: AaDOP2 antagonist screen of the LOPAC1280 library (HEK-CRELuc-Aadop2 cells, luminescence)
Assay type: cell-based
Conditions: not given

Sequence of AaDOP2 (H6D5H2 1-476): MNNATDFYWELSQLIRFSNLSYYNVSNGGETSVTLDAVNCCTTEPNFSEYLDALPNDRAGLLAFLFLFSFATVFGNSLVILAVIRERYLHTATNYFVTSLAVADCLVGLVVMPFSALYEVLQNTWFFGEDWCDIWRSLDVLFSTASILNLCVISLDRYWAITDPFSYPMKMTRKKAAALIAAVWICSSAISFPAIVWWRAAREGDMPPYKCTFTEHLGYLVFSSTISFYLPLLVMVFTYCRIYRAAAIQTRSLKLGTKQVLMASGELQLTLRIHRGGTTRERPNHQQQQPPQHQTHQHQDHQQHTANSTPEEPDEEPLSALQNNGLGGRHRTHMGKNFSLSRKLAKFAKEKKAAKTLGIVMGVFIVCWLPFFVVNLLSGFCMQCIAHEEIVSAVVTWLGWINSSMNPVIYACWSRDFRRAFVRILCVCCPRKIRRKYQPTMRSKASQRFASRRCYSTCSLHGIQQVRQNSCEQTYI

| Structure (SMILES) | Compound effect (percent receptor signaling in presence of test compound, relative lux units relative to the SCH23390 control) |
| --- | --- |
| COc1ccc(CCN(C)CCCC(C#N)(c2ccc(OC)c(OC)c2)C(C)C)cc1OC.Cl (racemic) [Compound 1252, (±)-Verapamil hydrochloride] | 117 |
| Cl.OC1CCCCC1N1CCC(c2ccccc2)CC1 (racemic) [Compound 1259, (±)-Vesamicol hydrochloride] | 97 |
| O=C(O)[C@H]1C[C@H](C(=O)O)N1 (relative stereo) [Compound 146, trans-Azetidine-2,4-dicarboxylic acid] | 110 |
| C[C@]12CC[C@H](O)CC1=CC[C@@H]1[C@@H]2CC[C@]2(C)C(=O)CC[C@@H]12 (relative stereo) [Compound 381, trans-Dehydroandrosterone] | 114 |
| C=CCN1CCC2(C)c3cc(O)ccc3CC1C2C.Cl (single isomer, unassigned; (+)) [Compound 123, (+)-N-Allylnormetazocine hydrochloride] | 90 |
| CC1OCC(C[N+](C)(C)C)O1.[I-] (single isomer, unassigned; (+)) [Compound 325, (+)-cis-Dioxolane iodide] | 96 |
| CC1C2Cc3ccc(O)cc3C1(C)CCN2CC1CC1 (single isomer, unassigned; (+)) [Compound 341, (+)-Cyclazocine] | 86 |
| COc1ccc2c(c1OC)C(=O)OC2C1c2cc3c(cc2CCN1C)OCO3 (single isomer, unassigned; (+)) [Compound 605, (+)-Hydrastine] | 122 |
| CC(N)C(O)c1ccc(O)c(O)c1 (single isomer, unassigned; (-)) [Compound 388, (-)-alpha-Methylnorepinephrine] | 88 |
| COc1ccc2c3c1OC1C(=O)CC[C@@]4(O)[C@@H](C2)N(CC2CC2)CC[C@]314.Cl (single isomer, unassigned; (-)) [Compound 836, (-)-3-Methoxynaltrexone hydrochloride] | 75 |
| O=C(O)c1ccccc1Nc1ccccc1 [Compound 2, N-Phenylanthranilic acid] | 100 |
| Cl.NCCCCC(=O)O [Compound 4, 5-Aminovaleric acid hydrochloride] | 115 |
| O=C(O)CCCCCCCC(=O)O [Compound 6, Azelaic acid] | 107 |
| NCCc1c[nH]c2ccccc12 [Compound 7, Tryptamine hydrochloride] | 121 |
| O=C(O)c1cc2cc(F)ccc2[nH]1 [Compound 8, 5-Fluoroindole-2-carboxylic acid] | 92 |
| COc1ccc2[nH]c3c(c2c1)CCNC3 [Compound 9, 6-Methoxy-1,2,3,4-tetrahydro-9H-pyrido[3,4b] indole] | 116 |
| Nc1nc(SCc2ccc([N+](=O)[O-])cc2)c2ncn([C@@H]3O[C@H](CO)[C@@H](O)[C@H]3O)c2n1 [Compound 10, S-(4-Nitrobenzyl)-6-thioguanosine] | 105 |
| Nc1ccncc1 [Compound 12, 4-Aminopyridine] | 110 |
| CN1[C@@H]2CC[C@H]1C[C@@H](OC(=O)C(CO)c1ccccc1)C2 (stereo partly shown) [Compound 13, Atropine sulfate] | 78 |
| C[N+]1(C)[C@@H]2CC[C@H]1C[C@@H](OC(=O)C(CO)c1ccccc1)C2 (stereo partly shown) [Compound 14, Atropine methyl nitrate] | 112 |

| Structure (SMILES) | Compound effect (percent receptor signaling in presence of test compound, relative lux units relative to the SCH23390 control) |
| --- | --- |
| NC(N)=NCCCCN=C(N)N [Compound 15, Arcaine sulfate] | 122 |
| Cl.NC1(C(=O)O)CC1 [Compound 16, 1-Aminocyclopropanecarboxylic acid hydrochloride] | 104 |
| Cl.NCCCCNS(=O)(=O)c1ccc2c(Cl)cccc2c1 [Compound 18, N-(4-Aminobutyl)-5-chloro-2-naphthalenesulfonamide hydrochloride] | 97 |
| O=C(O)[C@@H]1CCN1 [Compound 19, L-azetidine-2-carboxylic acid] | 115 |
| NC(=O)c1cccc(N)c1 [Compound 21, 3-aminobenzamide] | 96 |
| COC(=O)[C@H]1[C@H]2C[C@@H]3c4[nH]c5cc(OC)ccc5c4CCN3C[C@H]2C[C@@H](OC(=O)c2cc(OC)c(OC)c(OC)c2)[C@@H]1OC [Compound 24, Reserpine] | 113 |
| NC12CC3CC(CC(C3)C1)C2 [Compound 25, Amantadine hydrochloride] | 84 |
| Cn1c(=O)c2[nH]cnc2n(C)c1=O.Cn1c(=O)c2[nH]cnc2n(C)c1=O.NCCN [Compound 26, Aminophylline ethylenediamine] | 129 |
| Nc1nc(N)c2nc(CNc3ccc(C(=O)N[C@@H](CCC(=O)O)C(=O)O)cc3)cnc2n1 [Compound 28, Aminopterin] | 112 |
| CC(=O)NCCc1c[nH]c2ccc(O)cc12 [Compound 29, N-Acetyl-5-hydroxytryptamine] | 110 |
| O=C(O)C1=CC(=C(c2ccc(O)c(C(=O)O)c2)c2ccc(O)c(C(=O)O)c2)C=CC1=O [Compound 30, Aurintricarboxylic acid] | 132 |
| CCCCC/C=C\C/C=C\C/C=C\C/C=C\CCCC(=O)NCC(=O)O [Compound 32, N-arachidonylglycine] | 116 |
| NCCCC(=O)O [Compound 33, GABA] | 102 |
| Cc1cn([C@H]2C[C@H](N=[N+]=[N-])[C@@H](CO)O2)c(=O)[nH]c1=O [Compound 34, 3'-Azido-3'-deoxythymidine] | 114 |
| CC(=O)OC(C)C[N+](C)(C)C.[Cl-] (stereo not drawn) [Compound 35, Acetyl-beta-methylcholine chloride] | 127 |
| Nc1ncn([C@@H]2O[C@H](CO)[C@@H](O)[C@H]2O)c(=O)n1 [Compound 36, 5-azacytidine] | 103 |
| CCN(c1nc(N)c(C(=O)NC(=N)N)nc1Cl)C(C)C [Compound 37, 5-(N-Ethyl-N-isopropyl)amiloride] | 75 |
| N#CCCN.N#CCCN.O=C(O)/C=C/C(=O)O [Compound 38, 3-Aminopropionitrile fumarate] | 100 |
| O=c1cc(-c2ccc(O)cc2)oc2cc(O)cc(O)c12 [Compound 39, Apigenin] | 21 |

Same assay, conditions: 10 µM compound, 300 nM dopamine, 2 hr; hit = compound effect <20

| Structure (SMILES) | Compound effect (percent receptor signaling in presence of test compound, relative lux units relative to the SCH23390 control) [%] |
| --- | --- |
| C=CC(N)CCC(=O)O (racemic) [Compound 1256, (±)-gamma-Vinyl GABA] | 108 |
| CC[C@@H]1Cc2cc(O)ccc2C2=C1c1ccc(O)cc1C[C@H]2CC (relative stereo) [Compound 423, (R,R)-cis-Diethyl tetrahydro-2,8-chrysenediol] | 40 |
| Nc1ncnc2c1nc(Sc1ccc(Cl)cc1)n2C1OC2COP(=O)(O)O[C@H]2C1O (stereo in doubt) [Compound 251, 8-(4-Chlorophenylthio)-cAMP sodium] | 97 |
| NC(=S)c1ccc[n+]([C@@H]2OC(COP(=O)([O-])OP(=O)(O)OC[C@H]3O[C@@H](n4cnc5c(N)ncnc54)[C@H](OP(=O)(O)O)[C@@H]3O)C(O)C2O)c1 (stereo in doubt) [Compound 1183, Thio-NADP sodium] | 84 |
| Brc1ccc([C@H]2CN3CCSC3=N2)cc1.O=C(O)C(=O)O [Compound 3, S(-)-p-Bromotetramisole oxalate] | 106 |
| CCN(CC)CCCCCCCCOC(=O)c1cc(OC)c(OC)c(OC)c1.Cl [Compound 11, TMB-8 hydrochloride] | 98 |
| CC(N)=O [Compound 17, Acetamide] | 108 |
| Cl.Nc1cc(Cl)c(N=C2NCCN2)c(Cl)c1 [Compound 20, p-Aminoclonidine hydrochloride] | 79 |
| Nc1ccc2c3c(cccc13)C(=O)NC2=O [Compound 23, 4-Amino-1,8-naphthalimide] | 104 |
| [N-]=[N+]=Nc1ccc(C(=O)CSC[C@H](NC(=O)CC[C@H](N)C(=O)O)C(=O)NCC(=O)O)cc1 [Compound 27, S-(p-Azidophenacyl)glutathione] | 105 |
